Measurements taken from patent US20070191414A1, “Novel isoamido-substituted hydroxy-6-phenylphenanthridines” (Altana Pharma AG, priority 2004, published 2007).

Molecular target: T1, PDE4B2 (Homo sapiens, UniProt Q07343)
T1 construct: made in house; host or cells: SF21 insect cells (baculovirus; virus prepared in SF9 cells)
Experiment: Inhibition of PDE4B2 activity, modified [3H]cAMP SPA (scintillation proximity assay)
Format: biochemical
Settings: recombinant PDE4B2 expressed in SF21 insect cells; 0.5 μM cAMP; 15 min at 37° C.; read-out: Inhibition of the PDE4 activity, −log IC50(mol/l) (converted)
Procedure: The PDE4B2 (GB no. M97515) was a gift of Prof. M. Conti (Stanford University, USA). It was amplified from the original plasmid (pCMV5) via PCR with primers. Rb9 (5′- […] -3′) and Rb 10 (5′- […] -3′) and cloned into the pCR-Bac vector (Invitrogen, Groningen, NL).
The recombinant baculovirus was prepared by means of homologous recombination in SF9 insect cells. The expression plasmid was cotransfected with Bac-N-Blue (Invitrogen, Groningen, NL) or Baculo-Gold DNA (Pharmingen, Hamburg) using a standard protocol (Pharmingen, Hamburg). Wt virus-free recombinant virus supernatant was selected using plaque assay methods. After that, high-titre virus supernatant was prepared by amplifying 3 times. PDE was expressed in SF21 cells by infecting 2×10^6 cells/ml with an MOI (multiplicity of infection) between 1 and 10 in serum-free SF900 medium (Life Technologies, Paisley, UK). […]
The SF21 insect cells were resuspended, at a concentration of approx. 10^7 cells/ml, in ice-cold (4° C.) homogenization buffer (20 mM Tris, pH 8.2, containing the following additions: 140 mM NaCl, 3.8 mM KCl, 1 mM EGTA, 1 mM MgCl2, 10 mM β-mercaptoethanol, 2 mM benzamidine, 0.4 mM Pefablock, 10 μM leupeptin, 10 μM pepstatin A, 5 μM trypsin inhibitor) and disrupted by ultrasonication. […] The protein content was determined by the Bradford method (BioRad, Munich) using BSA as the standard. […]

T1 sequence (Q07343 1-564 isoform Q07343-2): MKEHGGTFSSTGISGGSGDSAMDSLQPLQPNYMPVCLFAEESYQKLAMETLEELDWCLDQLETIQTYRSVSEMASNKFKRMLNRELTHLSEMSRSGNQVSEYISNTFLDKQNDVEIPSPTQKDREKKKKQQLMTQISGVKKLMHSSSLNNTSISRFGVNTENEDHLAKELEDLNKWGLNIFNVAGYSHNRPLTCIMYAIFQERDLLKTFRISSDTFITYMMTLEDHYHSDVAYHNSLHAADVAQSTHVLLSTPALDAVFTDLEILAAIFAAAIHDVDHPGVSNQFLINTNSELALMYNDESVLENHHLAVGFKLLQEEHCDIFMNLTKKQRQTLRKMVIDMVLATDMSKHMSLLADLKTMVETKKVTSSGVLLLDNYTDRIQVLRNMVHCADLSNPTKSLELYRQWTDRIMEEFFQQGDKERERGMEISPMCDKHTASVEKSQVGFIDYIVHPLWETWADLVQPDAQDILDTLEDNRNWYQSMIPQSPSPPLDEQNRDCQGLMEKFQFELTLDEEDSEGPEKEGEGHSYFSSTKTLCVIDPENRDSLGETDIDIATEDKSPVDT

**Q.** How did the IC50 turn out when `CCOc1cc2c(cc1OC)C(c1cccc(NC(=O)CCNC(N)=O)c1)=N[C@@H]1CC[C@@H](O)C[C@H]21` (racemic) [Compound 19, N-[3-((2RS,4aRS,10bRS)-9-Ethoxy-2-hydroxy-8-methoxy-1,2,3,4,4a,10b-hexahydro-phenanthridin-6-yl)-phenyl]-3-ureido-propionamide] was run?
**A.** Its IC50 is 1.48 nM.
